Literature values in patent publication US9302977B2, “Method of making monomethyl fumarate” (XenoPort, Inc., priority 2013, dated 2016).
Where a name gives a salt, the structure may show the parent alone.

Key:
[1] = test system: TNF-induced NF-κB signaling
[2] = as an impurity

## COC(=O)/C=C/C(=O)OC [DMF, dimethyl fumarate]
other
  aqueous solubility: poor
[1]
  TNF-induced DNA binding of NF-κB proteins: inhibits
  TNF-induced nuclear entry of activated NF-κB proteins: inhibits
  TNF-induced tissue factor mRNA and protein expression: inhibits

## COS(=O)(=O)OC [Dimethyl sulfate]
[2]
  genotoxicity: genotoxic
